Measured values taken from article PMC6430017, “Structural and chemical insights into the covalent-allosteric inhibition of the protein kinase Akt” (Chemical Science, 2019).

Target: T1, SGK (SGK1) (Homo sapiens, UniProt O00141)
T1 sequence (O00141 1-431): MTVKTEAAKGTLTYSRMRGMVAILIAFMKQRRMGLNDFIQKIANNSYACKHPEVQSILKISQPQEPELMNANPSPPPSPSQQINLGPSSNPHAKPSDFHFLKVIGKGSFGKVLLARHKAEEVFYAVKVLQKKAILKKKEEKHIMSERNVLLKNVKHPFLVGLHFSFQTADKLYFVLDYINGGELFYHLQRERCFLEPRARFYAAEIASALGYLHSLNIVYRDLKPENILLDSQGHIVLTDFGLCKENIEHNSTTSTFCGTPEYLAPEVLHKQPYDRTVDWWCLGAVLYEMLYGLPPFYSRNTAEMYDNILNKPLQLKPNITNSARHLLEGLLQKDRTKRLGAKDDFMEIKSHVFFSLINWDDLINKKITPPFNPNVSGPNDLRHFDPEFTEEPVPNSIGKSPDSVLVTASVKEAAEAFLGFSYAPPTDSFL
Experiment: SelectScreen Z'LYTE kinase profiling
Assay type: biochemical
Conditions: ATP at apparent KM
Experimental: (§1) protein kinases at a compound concentration of 1 µM. Measurements were performed in duplicates
(§2) and at the particular apparent ATP KM of each individual kinase employing the activity based Z’LYTE®
(§3) kinase assay of the SelectScreen® Kinase Profiling Services (ThermoFisher Scientific).
(§4) kinases at a compound concentration of 1 µM. Measurements were performed in duplicates and at
(§5) the particular apparent ATP KM of each individual kinase employing the activity based Z’LYTE® kinase
(§6) assay of the SelectScreen® Kinase Profiling Services (ThermoFisher Scientific).

| Structure (SMILES) | inhibition at 1 µM [%] |
| --- | --- |
| C=CC(=O)Nc1ccc2c(c1)n(C1CCN(Cc3ccc(-c4nc5cc[nH]c(=O)c5cc4-c4ccccc4)cc3)CC1)c(=O)n2C [24b] | 19 |
| C=CC(=O)Nc1cccc(C(=O)NC2CCN(Cc3ccc(-c4nc5cc[nH]c(=O)c5cc4-c4ccccc4)cc3)CC2)c1 [30b] | 29 |
| C=CC(=O)Nc1cc(NC(=O)NC2CCN(Cc3ccc(-c4nc5cc[nH]c(=O)c5cc4-c4ccccc4)cc3)CC2)ccc1Cl [compound 27] | 21 |

Target: T2, ITK (Homo sapiens, UniProt Q08881)
T2 sequence (Q08881 1-620): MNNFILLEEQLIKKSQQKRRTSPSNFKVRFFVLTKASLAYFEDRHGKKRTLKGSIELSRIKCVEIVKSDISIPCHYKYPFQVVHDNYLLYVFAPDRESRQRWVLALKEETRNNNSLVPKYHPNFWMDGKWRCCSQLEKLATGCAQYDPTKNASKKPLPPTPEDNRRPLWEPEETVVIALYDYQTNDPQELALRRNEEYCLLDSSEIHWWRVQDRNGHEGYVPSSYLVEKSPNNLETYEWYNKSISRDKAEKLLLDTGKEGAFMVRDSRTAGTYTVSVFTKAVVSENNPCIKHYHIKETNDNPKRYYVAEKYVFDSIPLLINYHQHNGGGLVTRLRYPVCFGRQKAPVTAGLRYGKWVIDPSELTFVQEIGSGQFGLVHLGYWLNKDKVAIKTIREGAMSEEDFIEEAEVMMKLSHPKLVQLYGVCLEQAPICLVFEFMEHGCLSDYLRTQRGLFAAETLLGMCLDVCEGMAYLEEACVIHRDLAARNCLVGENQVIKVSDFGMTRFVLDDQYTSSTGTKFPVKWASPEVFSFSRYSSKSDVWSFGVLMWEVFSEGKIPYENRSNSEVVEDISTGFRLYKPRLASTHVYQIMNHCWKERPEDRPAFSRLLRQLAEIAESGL
Experiment: SelectScreen Z'LYTE kinase profiling
Assay type: biochemical
Conditions: ATP at apparent KM
Experimental: as §1, §2, §3, §4, §5, §6

| Structure (SMILES) | inhibition at 1 µM [%] |
| --- | --- |
| C=CC(=O)Nc1ccc2c(c1)n(C1CCN(Cc3ccc(-c4nc5cc[nH]c(=O)c5cc4-c4ccccc4)cc3)CC1)c(=O)n2C [24b] | -9 |
| C=CC(=O)Nc1cccc(C(=O)NC2CCN(Cc3ccc(-c4nc5cc[nH]c(=O)c5cc4-c4ccccc4)cc3)CC2)c1 [30b] | 1 |
| C=CC(=O)Nc1cc(NC(=O)NC2CCN(Cc3ccc(-c4nc5cc[nH]c(=O)c5cc4-c4ccccc4)cc3)CC2)ccc1Cl [compound 27] | 8 |

Target: BTK (Homo sapiens, UniProt Q06187)
Experiment: SelectScreen Z'LYTE kinase profiling
Assay type: biochemical
Conditions: ATP at apparent KM
Experimental: as §1, §2, §3, §4, §5, §6

Sequence of BTK (Q06187 whole entry): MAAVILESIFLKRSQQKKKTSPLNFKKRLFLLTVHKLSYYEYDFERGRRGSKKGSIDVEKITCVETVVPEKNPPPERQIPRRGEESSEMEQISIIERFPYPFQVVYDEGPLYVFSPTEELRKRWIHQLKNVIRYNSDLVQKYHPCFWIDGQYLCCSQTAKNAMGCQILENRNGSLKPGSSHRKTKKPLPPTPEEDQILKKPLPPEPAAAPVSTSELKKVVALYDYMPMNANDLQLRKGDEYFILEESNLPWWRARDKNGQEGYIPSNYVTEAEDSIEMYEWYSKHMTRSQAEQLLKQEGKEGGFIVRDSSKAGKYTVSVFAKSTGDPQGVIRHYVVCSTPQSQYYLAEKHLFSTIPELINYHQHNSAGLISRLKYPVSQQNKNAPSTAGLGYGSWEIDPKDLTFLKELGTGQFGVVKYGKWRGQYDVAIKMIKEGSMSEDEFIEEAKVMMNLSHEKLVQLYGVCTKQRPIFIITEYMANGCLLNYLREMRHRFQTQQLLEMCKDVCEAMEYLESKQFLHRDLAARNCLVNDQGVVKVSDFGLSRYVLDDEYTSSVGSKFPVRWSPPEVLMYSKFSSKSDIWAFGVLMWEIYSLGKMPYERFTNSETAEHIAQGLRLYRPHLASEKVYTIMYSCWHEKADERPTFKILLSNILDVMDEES

| Structure (SMILES) | inhibition at 1 µM [%] |
| --- | --- |
| C=CC(=O)Nc1ccc2c(c1)n(C1CCN(Cc3ccc(-c4nc5cc[nH]c(=O)c5cc4-c4ccccc4)cc3)CC1)c(=O)n2C [24b] | 12 |
| C=CC(=O)Nc1cccc(C(=O)NC2CCN(Cc3ccc(-c4nc5cc[nH]c(=O)c5cc4-c4ccccc4)cc3)CC2)c1 [30b] | 22 |
| C=CC(=O)Nc1cc(NC(=O)NC2CCN(Cc3ccc(-c4nc5cc[nH]c(=O)c5cc4-c4ccccc4)cc3)CC2)ccc1Cl [compound 27] | 10 |

Target: MKNK1 (MNK1) (Homo sapiens, UniProt Q9BUB5)
Experiment: SelectScreen Z'LYTE kinase profiling
Assay type: biochemical
Conditions: ATP at apparent KM
Experimental: as §1, §2, §3, §4, §5, §6

Sequence of MKNK1 (MNK1) (Q9BUB5 whole entry): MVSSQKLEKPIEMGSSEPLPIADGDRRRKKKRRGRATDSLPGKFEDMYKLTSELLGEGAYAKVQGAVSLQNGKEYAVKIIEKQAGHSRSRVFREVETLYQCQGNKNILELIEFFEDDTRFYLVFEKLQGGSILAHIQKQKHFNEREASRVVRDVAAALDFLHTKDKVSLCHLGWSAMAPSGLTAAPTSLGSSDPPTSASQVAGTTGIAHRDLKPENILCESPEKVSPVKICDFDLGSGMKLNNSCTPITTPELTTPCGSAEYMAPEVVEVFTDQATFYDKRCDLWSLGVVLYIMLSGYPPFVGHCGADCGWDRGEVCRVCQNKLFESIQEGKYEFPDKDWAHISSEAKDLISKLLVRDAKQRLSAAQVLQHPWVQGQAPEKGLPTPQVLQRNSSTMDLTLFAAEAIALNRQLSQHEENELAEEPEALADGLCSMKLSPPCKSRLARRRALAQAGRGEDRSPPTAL

| Structure (SMILES) | inhibition at 1 µM [%] |
| --- | --- |
| C=CC(=O)Nc1ccc2c(c1)n(C1CCN(Cc3ccc(-c4nc5cc[nH]c(=O)c5cc4-c4ccccc4)cc3)CC1)c(=O)n2C [24b] | -22 |
| C=CC(=O)Nc1cccc(C(=O)NC2CCN(Cc3ccc(-c4nc5cc[nH]c(=O)c5cc4-c4ccccc4)cc3)CC2)c1 [30b] | 10 |
| C=CC(=O)Nc1cc(NC(=O)NC2CCN(Cc3ccc(-c4nc5cc[nH]c(=O)c5cc4-c4ccccc4)cc3)CC2)ccc1Cl [compound 27] | 29 |

Target: T3, TBK1 (Homo sapiens, UniProt Q9UHD2)
T3 sequence (Q9UHD2 1-729): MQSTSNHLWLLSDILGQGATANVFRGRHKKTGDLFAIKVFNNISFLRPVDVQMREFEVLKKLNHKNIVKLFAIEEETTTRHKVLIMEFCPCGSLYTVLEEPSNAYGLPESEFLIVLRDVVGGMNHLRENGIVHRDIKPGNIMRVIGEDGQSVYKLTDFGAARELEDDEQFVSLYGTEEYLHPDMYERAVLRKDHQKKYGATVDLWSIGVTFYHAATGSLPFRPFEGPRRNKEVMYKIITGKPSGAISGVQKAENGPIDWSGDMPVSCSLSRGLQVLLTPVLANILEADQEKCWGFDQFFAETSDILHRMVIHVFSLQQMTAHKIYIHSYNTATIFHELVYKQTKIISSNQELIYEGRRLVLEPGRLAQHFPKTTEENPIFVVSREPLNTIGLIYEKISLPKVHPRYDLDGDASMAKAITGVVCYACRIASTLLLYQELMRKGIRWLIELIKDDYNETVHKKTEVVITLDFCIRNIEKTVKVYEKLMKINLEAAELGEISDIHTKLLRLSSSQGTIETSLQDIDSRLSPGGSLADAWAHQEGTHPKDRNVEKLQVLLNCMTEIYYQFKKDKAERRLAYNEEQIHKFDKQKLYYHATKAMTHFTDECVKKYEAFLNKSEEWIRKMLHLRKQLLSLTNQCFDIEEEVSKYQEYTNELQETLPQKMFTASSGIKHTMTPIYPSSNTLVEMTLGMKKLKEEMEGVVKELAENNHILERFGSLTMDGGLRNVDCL
Experiment: SelectScreen Z'LYTE kinase profiling
Assay type: biochemical
Conditions: ATP at apparent KM

| Structure (SMILES) | inhibition at 1 µM [%] |
| --- | --- |
| C=CC(=O)Nc1ccc2c(c1)n(C1CCN(Cc3ccc(-c4nc5cc[nH]c(=O)c5cc4-c4ccccc4)cc3)CC1)c(=O)n2C [24b] | 4 |
| C=CC(=O)Nc1cccc(C(=O)NC2CCN(Cc3ccc(-c4nc5cc[nH]c(=O)c5cc4-c4ccccc4)cc3)CC2)c1 [30b] | 5 |
| C=CC(=O)Nc1cc(NC(=O)NC2CCN(Cc3ccc(-c4nc5cc[nH]c(=O)c5cc4-c4ccccc4)cc3)CC2)ccc1Cl [compound 27] | 3 |

Target: RPS6KA5 (MSK1) (Homo sapiens, UniProt O75582)
Experiment: SelectScreen Z'LYTE kinase profiling
Assay type: biochemical
Conditions: ATP at apparent KM
Experimental: as §1, §2, §3, §4, §5, §6

Sequence of RPS6KA5 (MSK1) (O75582 whole entry): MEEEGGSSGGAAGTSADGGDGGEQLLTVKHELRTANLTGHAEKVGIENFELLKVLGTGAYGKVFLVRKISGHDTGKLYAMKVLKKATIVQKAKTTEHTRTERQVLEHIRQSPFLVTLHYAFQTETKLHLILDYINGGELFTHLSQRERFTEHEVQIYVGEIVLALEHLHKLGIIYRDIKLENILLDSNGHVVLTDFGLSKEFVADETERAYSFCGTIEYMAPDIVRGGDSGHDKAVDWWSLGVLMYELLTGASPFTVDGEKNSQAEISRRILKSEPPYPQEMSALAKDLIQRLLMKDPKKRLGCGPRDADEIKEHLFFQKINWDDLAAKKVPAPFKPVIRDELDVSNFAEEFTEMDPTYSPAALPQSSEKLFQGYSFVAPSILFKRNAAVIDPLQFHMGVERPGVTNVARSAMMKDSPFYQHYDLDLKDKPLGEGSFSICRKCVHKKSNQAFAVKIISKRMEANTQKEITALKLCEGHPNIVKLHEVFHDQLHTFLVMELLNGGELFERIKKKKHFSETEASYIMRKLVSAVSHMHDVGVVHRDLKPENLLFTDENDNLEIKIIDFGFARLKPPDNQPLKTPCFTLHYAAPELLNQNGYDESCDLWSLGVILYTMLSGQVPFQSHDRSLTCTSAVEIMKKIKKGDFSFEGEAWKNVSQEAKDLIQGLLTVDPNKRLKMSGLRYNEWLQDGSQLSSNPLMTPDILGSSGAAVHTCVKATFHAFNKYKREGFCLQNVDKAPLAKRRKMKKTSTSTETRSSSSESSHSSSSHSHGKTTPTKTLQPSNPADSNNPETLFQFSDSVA

| Structure (SMILES) | inhibition at 1 µM [%] |
| --- | --- |
| C=CC(=O)Nc1ccc2c(c1)n(C1CCN(Cc3ccc(-c4nc5cc[nH]c(=O)c5cc4-c4ccccc4)cc3)CC1)c(=O)n2C [24b] | 8 |
| C=CC(=O)Nc1cccc(C(=O)NC2CCN(Cc3ccc(-c4nc5cc[nH]c(=O)c5cc4-c4ccccc4)cc3)CC2)c1 [30b] | 13 |
| C=CC(=O)Nc1cc(NC(=O)NC2CCN(Cc3ccc(-c4nc5cc[nH]c(=O)c5cc4-c4ccccc4)cc3)CC2)ccc1Cl [compound 27] | 13 |

Target: T4, EPHB4 (Homo sapiens, UniProt P54760)
T4 sequence (P54760 16-987): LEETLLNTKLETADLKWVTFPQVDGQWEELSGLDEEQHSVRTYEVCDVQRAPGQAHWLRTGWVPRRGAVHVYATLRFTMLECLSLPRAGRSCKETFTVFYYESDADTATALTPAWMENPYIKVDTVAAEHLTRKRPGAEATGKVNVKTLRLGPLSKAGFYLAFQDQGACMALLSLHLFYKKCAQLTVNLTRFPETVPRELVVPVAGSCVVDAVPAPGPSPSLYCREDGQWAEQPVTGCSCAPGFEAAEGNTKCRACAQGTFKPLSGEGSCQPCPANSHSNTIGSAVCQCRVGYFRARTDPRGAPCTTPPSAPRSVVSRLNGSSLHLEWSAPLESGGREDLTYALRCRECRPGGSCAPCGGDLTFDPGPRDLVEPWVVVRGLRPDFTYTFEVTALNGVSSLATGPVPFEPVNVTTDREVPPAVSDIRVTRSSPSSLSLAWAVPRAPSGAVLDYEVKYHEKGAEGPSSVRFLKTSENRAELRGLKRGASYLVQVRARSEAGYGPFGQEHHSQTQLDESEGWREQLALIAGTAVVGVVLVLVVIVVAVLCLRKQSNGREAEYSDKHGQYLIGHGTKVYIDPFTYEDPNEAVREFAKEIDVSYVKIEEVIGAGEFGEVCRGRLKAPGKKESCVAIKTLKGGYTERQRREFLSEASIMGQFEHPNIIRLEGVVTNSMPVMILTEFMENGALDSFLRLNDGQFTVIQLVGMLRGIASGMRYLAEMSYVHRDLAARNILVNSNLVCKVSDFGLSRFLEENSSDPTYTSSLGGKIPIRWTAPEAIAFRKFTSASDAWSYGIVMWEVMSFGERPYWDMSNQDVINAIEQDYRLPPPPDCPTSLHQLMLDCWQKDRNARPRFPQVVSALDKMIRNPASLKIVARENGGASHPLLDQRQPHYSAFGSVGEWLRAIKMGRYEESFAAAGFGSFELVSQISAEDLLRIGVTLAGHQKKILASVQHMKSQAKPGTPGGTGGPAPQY
Experiment: SelectScreen Z'LYTE kinase profiling
Assay type: biochemical
Conditions: ATP at apparent KM
Experimental: as §1, §2, §3, §4, §5, §6

| Structure (SMILES) | inhibition at 1 µM [%] |
| --- | --- |
| C=CC(=O)Nc1ccc2c(c1)n(C1CCN(Cc3ccc(-c4nc5cc[nH]c(=O)c5cc4-c4ccccc4)cc3)CC1)c(=O)n2C [24b] | 4 |
| C=CC(=O)Nc1cccc(C(=O)NC2CCN(Cc3ccc(-c4nc5cc[nH]c(=O)c5cc4-c4ccccc4)cc3)CC2)c1 [30b] | 1 |
| C=CC(=O)Nc1cc(NC(=O)NC2CCN(Cc3ccc(-c4nc5cc[nH]c(=O)c5cc4-c4ccccc4)cc3)CC2)ccc1Cl [compound 27] | 4 |

Target: GSK3B (GSK3 beta) (Homo sapiens, UniProt P49841)
Experiment: SelectScreen Z'LYTE kinase profiling
Assay type: biochemical
Conditions: ATP at apparent KM
Experimental: as §1, §2, §3, §4, §5, §6

Sequence of GSK3B (GSK3 beta) (P49841 whole entry): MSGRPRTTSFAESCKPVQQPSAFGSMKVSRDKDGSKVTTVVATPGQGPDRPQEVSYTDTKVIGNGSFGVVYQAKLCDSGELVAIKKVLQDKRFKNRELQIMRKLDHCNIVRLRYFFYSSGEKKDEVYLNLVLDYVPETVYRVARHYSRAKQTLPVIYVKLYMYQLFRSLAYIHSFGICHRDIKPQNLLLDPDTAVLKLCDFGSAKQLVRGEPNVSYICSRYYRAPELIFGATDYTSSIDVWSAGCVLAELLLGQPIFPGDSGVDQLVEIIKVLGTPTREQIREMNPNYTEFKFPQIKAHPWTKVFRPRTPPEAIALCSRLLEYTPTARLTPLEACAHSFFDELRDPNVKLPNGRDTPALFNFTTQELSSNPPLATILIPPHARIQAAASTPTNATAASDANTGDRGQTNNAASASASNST

| Structure (SMILES) | inhibition at 1 µM [%] |
| --- | --- |
| C=CC(=O)Nc1ccc2c(c1)n(C1CCN(Cc3ccc(-c4nc5cc[nH]c(=O)c5cc4-c4ccccc4)cc3)CC1)c(=O)n2C [24b] | 22 |
| C=CC(=O)Nc1cccc(C(=O)NC2CCN(Cc3ccc(-c4nc5cc[nH]c(=O)c5cc4-c4ccccc4)cc3)CC2)c1 [30b] | 29 |
| C=CC(=O)Nc1cc(NC(=O)NC2CCN(Cc3ccc(-c4nc5cc[nH]c(=O)c5cc4-c4ccccc4)cc3)CC2)ccc1Cl [compound 27] | 18 |
